Laboratory results published in US20110191867A1.
Like-named read-outs stand apart in the source and are kept apart here.

Tests used:
[1] = system: commercial polyclonal antibody from rabbit; test: ELISA control: commercial polyclonal antibody binding to peptide coated on a maleimide plate
Excerpt: A commercial peptide […] (HA11-peptide), which has been used as a recognition tag on recombinant proteins was used as a control and for testing of analysis of binding between a free core peptide and human antibodies. Due to restricted availability of at least N-terminal sequence the peptide would not be very effective in immunization against the viral as therapy. This peptide is known to be antigenic in animals under immunization conditions and antibodies including polyclonals from rabbit, mice etc.

natural human antibodies [2] = system: natural human antibodies
natural human antibodies [3] = assay type: binding
[4] = system: serum antibodies of test subjects
[5] = system: serum antibodies of test subjects; remark: listed apart in the source

Substance | immune response of the 6 sera, order of reactivity (natural human antibodies [2]) | immune response of the 6 sera, order of reactivity (natural human antibodies [3]) | reaction with serum of test subject [5] | also measured
CYPYDVPDYA [HA11-N Cys, commercial peptide used as a recognition tag on recombinant proteins, used as a control] | – | – | – | binding of commercial polyclonal antibody from rabbit to the peptide [1]: effective binding
Biotin-aminohexanoyl-SKAYSNC [Peptide P1-N] | sera 3 and 4 showed strongest immune response before serum 2, while sera 1, 5 and 6 were weakly or non-reactive | reacted with sera in the order from strongest to weaker: 6, 3, 4, and 2, while 1 and 5 were weakly or non-reactive | – | –
Biotin-aminohexanoyl-SYACKR [Peptide P2-N] | sera 2 and 5 showed strongest immune response before sera 3, 4 and 6, while serum 1 showed weakest reaction | reacted with sera similarily but reactions with serum 5 was weaker and the serum 6 showed the strongest reponse | – | –
Biotin-aminocaproyl-CRPKVRDQC [Peptide 3B] | – | – | weaker reaction | serum antibody response ([4]; person S5B, vaccinated against influenza, FIG. 5): unusually high response
Biotin-aminocaproyl-CRPRVRNICG-NH4 [Peptide 1C] | – | – | weaker reaction | comparison of the cyclic and linear peptide, reactivity with sera [5]: more reactive with all subjects except S3B; reactivity with sera of test subjects [5]: Strong responses were observed from the serum of test subjects S5B an S7B
Biotin-aminocaproyl-CRPWVRGVC [Peptide 4B] | – | – | – | antibody binding, cyclic peptide compared with corresponding linear peptide ([4]; sera S1B-S8B, FIG. 8): bind generally more strongly antibodies than the corresponding linear peptide 3
